The source of these data is patent US8969388B1, “Substituted pyrazolone compounds and methods of use” (Calitor Sciences, LLC, priority 2012, dated 2015).

The nature of data set [1]: Compound stability in human liver microsomes. The settings on record: pH 7.4; for half-life at 5 μM: human liver microsomes 0.5 mg protein/mL, compound 5 μM, NADPH, 37° C., read-out: Human T1/2; for CLint scaled at 5 μM: human liver microsomes, in vivo CLint extrapolated. It is filed as in vitro ADME. The protocol:
(§1) Human or rat liver microsomes incubations were conducted in duplicate in polypropylene tubes. The typical incubation mixtures consisted of human liver microsomes (0.5 mg protein/mL), compounds of interest (5 μM) and NADPH (1.0 mM) in a total volume of 200 μL potassium phosphate buffer (PBS, 100 mM, pH 7.4). Compounds were dissolved in DMSO and diluted with PBS such that the final concentration of DMSO was 0.05%. The enzymatic reactions were commenced with the addition of protein after a 3-min preincubation and incubated in a water bath open to the air at 37° C. Reactions were terminated at various time points (0, 5, 10, 15, 30, 60 min) by adding equal volume of ice-cold acetonitrile. The samples were stored at −80° C. until LC/MS/MS assays.
(§2) The concentrations of compounds in the incubation mixtures of human liver microsomes were determined by a LC/MS/MS method. The ranges of the linearity in the concentration range were determined for each tested compounds.
(§3) A parallel incubation was performed using denatured microsomes as the negative control, and reactions were terminated at various time points (0, 15, 60 min) after incubation at 37° C.
(§4) Dextromethorphan (70 μM) was selected as the positive control, and reactions were terminated at various time points (0, 5, 10, 15, 30, 60 min) after incubation at 37° C. Both positive and negative control samples were included in each assay to ensure the integrity of the microsomal incubation system.
(§5) The concentrations of compounds in human liver microsome incubations were plotted as a percentage of the relevant zero time point control for each reaction. The in vivo CLint were extrapolated (ref: Naritomi Y, Terashita S, Kimura S, Suzuki A, Kagayama A, Sugiyama Y. Prediction of human hepatic clearance from in vivo animal experiments and in vitro metabolic studies with liver microsomes from animals and humans. Drug Metabolism and Disposition 2001, 29: 1316-1324.)

Data set [2] is described as follows: Compound stability in rat liver microsomes. Type of data set: in vitro ADME. To be noted: for half-life at 5 μM: pH 7.4, compound 5 μM, NADPH, 37° C., read-out: Rat T1/2; for CLint scaled at 5 μM: pH 7.4, in vivo CLint extrapolated. The protocol:
as §1, §2, §3, §4, §5

Data set [3] can be described thus: Pharmacokinetics after intravenous and oral administration in rats. Type of data set: in vivo. To be noted: for F: oral bioavailability, oral dose not given; for AUC(0-t) / half-life / Vd: rat, plasma; for clearance (CL) after iv dosing / AUC(0-t) / half-life / Vd: iv dosing; for Vd: read-out: Vss. The protocol:
The compounds disclosed herein are assessed in pharmacokinetic studies in mice, rats, dogs or monkeys. The compounds are administered as a water solution, 2% HPMC+1% TWEEN®80 in water solution, 5% DMSO+5% solutol in saline, 4% MC suspension or capsule. For the intravenous administration, the animals are generally given at 1 or 2 mg/kg dose. For the oral (p.o.) dosing, mice and rats are generally given 5 or 10 mg/kg dose, and dogs and monkeys are generally given 10 mg/kg dose. The blood samples (0.3 mL) are drawn at 0.25, 0.5, 1.0, 2.0, 3.0, 4.0, 6.0, 8.0, 12 and 24 h time points or 0.083, 0.25, 0.5, 1.0, 2.0, 4.0, 6.0, 8.0 and 24 h time points and centrifuged at 3,000 or 4000 rpm for 2 to 10 min. The plasma solutions are collected, stored at −20° C. or −70° C. until analyzed by LC/MS/MS as described above.

For data set [4], the target named is T1, KDR (h) (Homo sapiens, UniProt P35968).
T1 construct: host or cells: E. coli BL21-derived host (T7 phage) or HEK-293
Put plainly: KINOMEscan competition binding assay, KDR (h). The protocol: (§6) Alternatively, the kinase activities of the compounds can be measured using KINOMEscan™, which is based on a competition binding assay that quantitatively measures the ability of a compound to compete with an immobilized, active-site directed ligand. The assay was performed by combining three components: DNA-tagged kinase; immobilized ligand; and a test compound. The ability of the test compound to compete with the immobilized ligand was measured via quantitative PCR of the DNA tag.
(§7) For most assays, kinase-tagged T7 phage strains were prepared in an E. coli host derived from the BL21 strain. E. coli were grown to log-phase and infected with T7 phage and incubated with shaking at 32° C. until lysis. The lysates were centrifuged and filtered to remove cell debris. The remaining kinases were produced in HEK-293 cells and subsequently tagged with DNA for qPCR detection. Streptavidin-coated magnetic beads were treated with biotinylated small molecule ligands for 30 minutes at room temperature to generate affinity resins for kinase assays. The liganded beads were blocked with excess biotin and washed with blocking buffer (SEABLOCK™ (Pierce), 1% BSA, 0.05% TWEEN®20, 1 mM DTT) to remove unbound ligand and to reduce nonspecific binding. Binding reactions were assembled by combining kinases, liganded affinity beads, and test compounds in 1× binding buffer (20% SEABLOCK™, 0.17×PBS, 0.05% TWEEN®20, 6 mM DTT). All reactions were performed in polystyrene 96-well plates in a final volume of 0.135 mL. The assay plates were incubated at room temperature with shaking for 1 hour and the affinity beads were washed with wash buffer (1×PBS, 0.05% TWEEN®20). The beads were then re-suspended in elution buffer (1×PBS, 0.05% TWEEN®20, 0.5 μM non-biotinylated affinity ligand) and incubated at room temperature with shaking for 30 minutes. The kinase concentration in the eluates was measured by qPCR.
(§8) The kinase assays described herein were performed using KINOMEscan™ Profiling Service at DiscoveRx Corporation, 42501 Albrae St. Fremont, Calif.

Data set [5] has as its target T2, c-Met (h) (Homo sapiens, UniProt P08581).
T2 construct: host or cells: E. coli BL21-derived host (T7 phage) or HEK-293
In words: KINOMEscan competition binding assay, c-Met (h). The protocol: as §6, §7, §8

For data set [6], the system named is U87MG glioblastoma cells. In words: U87MG tumor xenograft model, tumor growth inhibition. It is filed as in vivo, athymic nude mice (BALB/cA nu/nu). To be noted: mice, oral gavage, 16 days. The protocol: The efficacy of compounds disclosed herein was evaluated in a standard murine model of tumorigenesis. Human tumor cells (U87MG glioblastoma cells from ATCC) were expended in culture, harvested, and injected subcutaneously onto the rear flank of 6-7 week old female athymic nude mice (BALB/cA nu/nu, Hunan SLAC Laboratory Animal, Co.) (n=6-10 for vehicle group and for each dosing group). When tumors reached a volume of 100-250 mm^3, animals were randomly divided into vehicle control (for example, 5% DMSO+70% Captisol® (30%), 7% HCl (pH1), 18% Captisol® (30%); or 7% DMSO, 7% HCl (pH1), 70% Captisol® (30%), 16% Captisol® (30%), or the like) and compound groups. Subsequent administration of compound by oral gavage begins anywhere from day 0 to day 15 post tumor cell challenge and generally continues with once a day for the duration of the experiment.
Progression of tumor growth is assessed by tumor volumes and recorded as a function of time. The long (L) and short (W) axes of the subcutaneous tumors were measured with calipers twice weekly, and the tumor volume (TV) calculated as (L×W^2)/2). TGI was calculated from the difference between the median tumor volumes of vehicle-treated and drug-treated mice, expressed as a percentage of the median tumor volume of the vehicle-treated control group, by the following relation:
[formula] Initial statistical analysis is done by repeated measures analysis of variance (RMANOVA), followed by Scheffe psot hoc testing for multiple comparisons. Vehicle alone (5% DMSO+70% Captisol® (30%), 7% HCl (pH1), 18% Captisol® (30%); or 7% DMSO, 7% HCl (pH1), 70% Captisol® (30%), 16% Captisol® (30%), or the like) is the negative control.

Data set [7] concerns the target T1, KDR (h). Put plainly: KDR (h) (VEGF-R2 (h)) kinase assay (IC50). It is filed as biochemical. The settings on record: cells marked (IC50) in the Kd table. The protocol:
(§9) The above assay procedure can be used to determine the IC50 for inhibition and/or the inhibition constant, Ki. The IC50 is defined as the concentration of compound required to reduce the enzyme activity by 50% under the condition of the assay. The IC50 value is estimated by preparing a 10 point curve using a ½ log dilution series (for example, a typical curve may be prepared using the following compound concentrations; 100 μM, 30 μM, 10 μM, 3 μM, 1 μM, 0.3 μM, 0.1 μM, 0.03 μM, 0.01 μM and 0 μM).
KDR (h) (VEGF-R2 (h)) Assay
(§10) (specific activity approx. 500 cpm/pmol, concentration as required).
(§11) The kinase assays described herein can be performed at Millipore UK Ltd, Dundee Technology Park, Dundee DD2 1SW, UK c-Met (h) Assay.

Data set [8] addresses T2, c-Met (h). In words: c-Met (h) kinase assay (IC50). It is filed as biochemical. The settings on record: cells marked (IC50) in the Kd table. The protocol: as §9, §10, §11

SMILES strings stand for the structures. Where two headings read alike, the source gives them in different places.

T1 sequence (P35968 20-1356): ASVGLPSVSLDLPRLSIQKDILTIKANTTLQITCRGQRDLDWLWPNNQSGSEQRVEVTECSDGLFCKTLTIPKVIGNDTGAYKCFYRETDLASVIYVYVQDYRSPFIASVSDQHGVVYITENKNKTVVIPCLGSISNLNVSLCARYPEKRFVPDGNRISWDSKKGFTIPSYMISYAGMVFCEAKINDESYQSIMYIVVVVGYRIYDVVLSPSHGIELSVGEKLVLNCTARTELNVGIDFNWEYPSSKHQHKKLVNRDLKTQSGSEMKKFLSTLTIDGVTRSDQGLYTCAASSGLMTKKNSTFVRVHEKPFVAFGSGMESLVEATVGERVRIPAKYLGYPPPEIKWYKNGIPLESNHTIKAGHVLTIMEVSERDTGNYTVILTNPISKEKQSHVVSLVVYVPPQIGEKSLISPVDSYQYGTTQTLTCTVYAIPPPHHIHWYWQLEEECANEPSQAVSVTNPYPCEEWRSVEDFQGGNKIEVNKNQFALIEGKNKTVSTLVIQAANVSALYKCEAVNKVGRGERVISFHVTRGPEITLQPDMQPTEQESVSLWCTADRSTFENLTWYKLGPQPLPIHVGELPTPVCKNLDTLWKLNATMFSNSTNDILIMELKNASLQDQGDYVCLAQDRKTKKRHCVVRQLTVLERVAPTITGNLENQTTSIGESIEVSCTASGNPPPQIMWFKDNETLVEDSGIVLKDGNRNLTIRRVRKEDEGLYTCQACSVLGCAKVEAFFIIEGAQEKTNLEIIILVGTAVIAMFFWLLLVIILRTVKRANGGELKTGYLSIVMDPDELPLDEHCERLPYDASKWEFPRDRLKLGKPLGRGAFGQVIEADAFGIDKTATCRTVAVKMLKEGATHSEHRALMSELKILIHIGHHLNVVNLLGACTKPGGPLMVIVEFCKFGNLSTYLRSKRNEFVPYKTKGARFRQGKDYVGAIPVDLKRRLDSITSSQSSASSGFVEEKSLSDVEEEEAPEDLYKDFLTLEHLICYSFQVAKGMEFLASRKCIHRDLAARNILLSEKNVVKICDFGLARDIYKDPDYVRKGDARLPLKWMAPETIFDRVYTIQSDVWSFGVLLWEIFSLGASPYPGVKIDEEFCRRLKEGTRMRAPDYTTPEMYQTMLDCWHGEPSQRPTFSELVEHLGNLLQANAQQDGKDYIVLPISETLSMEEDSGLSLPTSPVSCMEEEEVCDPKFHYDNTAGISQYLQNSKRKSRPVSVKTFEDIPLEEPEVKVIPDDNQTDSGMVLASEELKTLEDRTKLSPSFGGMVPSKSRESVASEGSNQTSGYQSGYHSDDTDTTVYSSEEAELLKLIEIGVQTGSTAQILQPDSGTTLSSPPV
T2 sequence (P08581 25-1390): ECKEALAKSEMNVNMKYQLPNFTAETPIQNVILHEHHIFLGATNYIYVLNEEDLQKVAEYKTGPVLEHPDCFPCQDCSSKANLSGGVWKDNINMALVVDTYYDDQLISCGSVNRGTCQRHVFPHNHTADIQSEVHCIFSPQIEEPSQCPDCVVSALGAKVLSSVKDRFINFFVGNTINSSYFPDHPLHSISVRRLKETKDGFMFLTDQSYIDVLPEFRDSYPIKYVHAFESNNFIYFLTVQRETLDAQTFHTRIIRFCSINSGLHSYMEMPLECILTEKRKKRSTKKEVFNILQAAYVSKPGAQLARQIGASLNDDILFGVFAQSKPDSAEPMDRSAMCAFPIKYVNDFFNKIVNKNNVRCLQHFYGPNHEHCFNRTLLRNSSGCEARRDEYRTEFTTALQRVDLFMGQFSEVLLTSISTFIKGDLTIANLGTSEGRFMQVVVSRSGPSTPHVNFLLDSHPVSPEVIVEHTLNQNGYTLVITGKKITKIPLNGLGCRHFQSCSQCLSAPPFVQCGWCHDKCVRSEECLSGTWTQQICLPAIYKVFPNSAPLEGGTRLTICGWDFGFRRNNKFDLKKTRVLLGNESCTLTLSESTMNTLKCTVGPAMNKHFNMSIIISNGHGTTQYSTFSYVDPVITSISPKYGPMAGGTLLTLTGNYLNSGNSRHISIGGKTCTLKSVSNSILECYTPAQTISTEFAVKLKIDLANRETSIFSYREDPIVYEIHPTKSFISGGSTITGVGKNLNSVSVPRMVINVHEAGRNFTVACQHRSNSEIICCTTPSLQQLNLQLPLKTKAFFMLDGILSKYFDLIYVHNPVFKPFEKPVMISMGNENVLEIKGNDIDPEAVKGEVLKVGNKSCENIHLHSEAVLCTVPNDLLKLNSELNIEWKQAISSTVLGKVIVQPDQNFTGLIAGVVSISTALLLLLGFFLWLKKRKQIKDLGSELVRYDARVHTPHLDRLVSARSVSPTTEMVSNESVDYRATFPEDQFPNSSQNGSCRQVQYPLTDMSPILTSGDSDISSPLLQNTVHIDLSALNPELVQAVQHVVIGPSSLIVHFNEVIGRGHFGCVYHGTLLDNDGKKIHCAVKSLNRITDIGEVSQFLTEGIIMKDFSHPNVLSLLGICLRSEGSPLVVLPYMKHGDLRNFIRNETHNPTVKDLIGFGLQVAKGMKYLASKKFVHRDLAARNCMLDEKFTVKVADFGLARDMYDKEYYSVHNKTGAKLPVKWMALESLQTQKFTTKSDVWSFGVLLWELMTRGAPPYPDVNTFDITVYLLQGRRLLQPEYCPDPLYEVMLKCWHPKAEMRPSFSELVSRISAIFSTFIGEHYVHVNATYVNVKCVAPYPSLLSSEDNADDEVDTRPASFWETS

For orientation: CLint scaled means a measure of how fast metabolising enzymes remove a compound, apart from limits set by blood flow. By AUC(0-t) is commonly meant exposure summed from dosing to a finite time, without extrapolation to infinity. Take `Cc1c(C(=O)Nc2ccc(Oc3ccnc(N)c3Cl)cc2F)c(=O)n(-c2ccccc2)n1C` [Ex. 31, N-(4-((2-amino-3-chloropyridin-4-yl)oxy)-2-fluorophenyl)-1,5-dimethyl-3-oxo-2-phenyl-2,3-dihydro-1H-pyrazole-4-carboxamide]: in data set [1], the half-life at 5 μM worked out at 2.44 h and the CLint scaled at 5 μM is 11.8 mL/min/kg. Besides, in data set [2], the half-life at 5 μM amounted to 0.611 h and the CLint scaled at 5 μM is 67.8 mL/min/kg. For the same molecule, in data set [3] (2 mg/kg), the “clearance (CL) after iv dosing” value amounted to 8.83 mL/min/kg, the AUC(0-t) was 3910 ng·h/mL, the half-life is 3.29 h and the Vd stood at 0.4 L/kg. The molecule also came in with a F in data set [3] (iv dose 2 mg/kg) of 70.3%.

A word on the Kd: it is the constant that tells how readily two partners part at equilibrium. A low value points to a tighter complex. In the case of `Cc1c(C(=O)Nc2ccc(Oc3ccnc(N)c3Cl)c(F)c2)c(=O)n(-c2ccccc2)n1C` [Ex. 3, N-(4-((2-amino-3-chloropyridin-4-yl)oxy)-3-fluorophenyl)-1,5-dimethyl-3-oxo-2-phenyl-2,3-dihydro-1H-pyrazole-4-carboxamide], the half-life at 5 μM was found to be 12.4 h in data set [1] and 1.02 h in data set [2]. Further, the figures for the CLint scaled at 5 μM in data set [1] and in data set [2] were 2.34 mL/min/kg and 40.6 mL/min/kg, respectively. Also, the “clearance (CL) after iv dosing” value in data set [3] (1 mg/kg) was 17 mL/min/kg. The F in data set [3] (iv dose 1 mg/kg) was found to be 177.1%. This molecule also yielded an AUC(0-t) in data set [3] (1 mg/kg) of 922 ng·h/mL. The same molecule had a half-life in data set [3] (1 mg/kg) of 2.69 h. The Vd in data set [3] (1 mg/kg) was 1.61 L/kg. In addition, the Kd in data set [4] is 23 nM; in data set [5], 4.4 nM. Besides, the “TGI % (on last day of dosing)” value in data set [6] (10 mg/kg) was found to be 53%; in data set [6] (20 mg/kg), 68%; in data set [6] (40 mg/kg), 85%.

One may read the IC50 as the concentration that inhibits the measured activity by half. Low readings indicate inhibition by little substance, high ones a need for much substance. As for `Cc1c(C(=O)Nc2ccc(Oc3ccnc(N)c3)c(F)c2)c(=O)n(-c2ccccc2)n1C` [Ex. 22, N-(4-((2-aminopyridin-4-yl)oxy)-3-fluorophenyl)-1,5-dimethyl-3-oxo-2-phenyl-2,3-dihydro-1H-pyrazole-4-carboxamide], in data set [3] (2 mg/kg), the “clearance (CL) after iv dosing” value is 13.3 mL/min/kg, the AUC(0-t) was 2510 ng·h/mL, the half-life is 0.72 h and the Vd was 0.56 L/kg. The F in data set [3] (iv dose 2 mg/kg) was 78.1%. In data set [7], this molecule gave an IC50 greater than 3000 nM. The molecule further gave an IC50 in data set [8] of 84 nM.

On to `Cc1c(C(=O)Nc2ccc(Oc3ccnc(N)c3)cc2F)c(=O)n(-c2ccccc2)n1C` [Ex. 30, N-(4-((2-aminopyridin-4-yl)oxy)-2-fluorophenyl)-1,5-dimethyl-3-oxo-2-phenyl-2,3-dihydro-1H-pyrazole-4-carboxamide], for which, in data set [1], the half-life at 5 μM was 2.09 h and the CLint scaled at 5 μM was 13.9 mL/min/kg. Further, in data set [2], the half-life at 5 μM is 1.61 h and the CLint scaled at 5 μM is 25.8 mL/min/kg. In data set [3] (2 mg/kg), the “clearance (CL) after iv dosing” value was found to be 22 mL/min/kg, the exposure AUC(0-t) was determined as 1490 ng·h/mL, the half-life is 11.8 h and the Vd was 2.64 L/kg. The molecule also displayed a F in data set [3] (iv dose 2 mg/kg) of 54.4%.

As for `Cc1c(C(=O)Nc2ccc(Oc3ccnc(N)c3)cc2)c(=O)n(-c2ccccc2)n1C` [Ex. 1, N-(4-((2-aminopyridin-4-yl)oxy)phenyl)-1,5-dimethyl-3-oxo-2-phenyl-2,3-dihydro-1H-pyrazole-4-carboxamide], in data set [3] (1 mg/kg), the “clearance (CL) after iv dosing” value was found to be 23.7 mL/min/kg, the AUC(0-t) came out at 706 ng·h/mL, the half-life is 1.13 h and the Vd was 0.68 L/kg. In addition, the F in data set [3] (iv dose 1 mg/kg) was 31.2%. In data set [7], this molecule had an IC50 greater than 3000 nM. This molecule also registered an IC50 in data set [8] of 611 nM.
